Article PMC12281424, “A Rac-specific competitive inhibitor of guanine nucleotide binding reduces metastasis in triple-negative breast cancer” (Cell Reports Medicine, 2025)

Experiments:
[1] = molecular target: Peptidase, CTSG (Cathepsin G) (Homo sapiens, UniProt P08311); assay: Safety screen; assay type: biochemical
Description: (§1) Blood cell counts, kinase profiler, safety screen, bacterial cytotoxicity, Ames, micronucleus assays were performed by the company Eurofins (France).

Fgr(h) = Fgr(h) (Homo sapiens, UniProt P09769); assay: Kinase Profiler; assay type: biochemical
Description: (§2) The kinase profiler was performed by the company Eurofins (Discovery, Panlab and Cerep).

[2] = molecular target: PI3K (p110a(E545K)/p85a)(h) (Homo sapiens, UniProt P42336, E545K); assay: Kinase Profiler; assay type: biochemical
Sequence of PI3K (p110a(E545K)/p85a)(h) (P42336 whole entry E545K): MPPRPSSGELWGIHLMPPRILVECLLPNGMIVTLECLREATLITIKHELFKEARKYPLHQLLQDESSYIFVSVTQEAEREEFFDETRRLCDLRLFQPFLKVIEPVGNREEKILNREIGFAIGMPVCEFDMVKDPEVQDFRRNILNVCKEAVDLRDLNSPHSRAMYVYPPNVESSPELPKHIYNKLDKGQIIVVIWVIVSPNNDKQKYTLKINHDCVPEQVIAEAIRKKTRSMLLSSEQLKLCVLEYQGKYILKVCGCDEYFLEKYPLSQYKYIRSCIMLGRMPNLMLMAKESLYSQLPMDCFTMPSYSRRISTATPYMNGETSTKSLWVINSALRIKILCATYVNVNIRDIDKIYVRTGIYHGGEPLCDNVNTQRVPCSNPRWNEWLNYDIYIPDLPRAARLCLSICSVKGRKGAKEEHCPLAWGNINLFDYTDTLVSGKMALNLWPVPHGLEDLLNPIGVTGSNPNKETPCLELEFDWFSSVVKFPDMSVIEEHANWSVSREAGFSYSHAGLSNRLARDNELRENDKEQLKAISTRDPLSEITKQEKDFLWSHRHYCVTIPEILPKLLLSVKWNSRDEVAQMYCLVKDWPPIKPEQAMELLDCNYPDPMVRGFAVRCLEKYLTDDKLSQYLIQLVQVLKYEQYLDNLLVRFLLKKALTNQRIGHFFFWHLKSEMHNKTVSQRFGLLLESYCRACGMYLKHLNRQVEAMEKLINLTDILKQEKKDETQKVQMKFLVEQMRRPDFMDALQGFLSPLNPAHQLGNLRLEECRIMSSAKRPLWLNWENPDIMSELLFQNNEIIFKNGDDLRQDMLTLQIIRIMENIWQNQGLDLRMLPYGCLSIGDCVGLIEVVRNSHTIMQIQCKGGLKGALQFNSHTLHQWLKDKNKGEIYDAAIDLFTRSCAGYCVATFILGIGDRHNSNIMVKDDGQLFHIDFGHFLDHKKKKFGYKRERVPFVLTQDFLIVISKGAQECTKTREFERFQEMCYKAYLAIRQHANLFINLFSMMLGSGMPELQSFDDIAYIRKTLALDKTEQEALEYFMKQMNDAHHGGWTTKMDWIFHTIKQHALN
Sequence of PI3K (p110a(E545K)/p85a)(h) (P27986 whole entry partner): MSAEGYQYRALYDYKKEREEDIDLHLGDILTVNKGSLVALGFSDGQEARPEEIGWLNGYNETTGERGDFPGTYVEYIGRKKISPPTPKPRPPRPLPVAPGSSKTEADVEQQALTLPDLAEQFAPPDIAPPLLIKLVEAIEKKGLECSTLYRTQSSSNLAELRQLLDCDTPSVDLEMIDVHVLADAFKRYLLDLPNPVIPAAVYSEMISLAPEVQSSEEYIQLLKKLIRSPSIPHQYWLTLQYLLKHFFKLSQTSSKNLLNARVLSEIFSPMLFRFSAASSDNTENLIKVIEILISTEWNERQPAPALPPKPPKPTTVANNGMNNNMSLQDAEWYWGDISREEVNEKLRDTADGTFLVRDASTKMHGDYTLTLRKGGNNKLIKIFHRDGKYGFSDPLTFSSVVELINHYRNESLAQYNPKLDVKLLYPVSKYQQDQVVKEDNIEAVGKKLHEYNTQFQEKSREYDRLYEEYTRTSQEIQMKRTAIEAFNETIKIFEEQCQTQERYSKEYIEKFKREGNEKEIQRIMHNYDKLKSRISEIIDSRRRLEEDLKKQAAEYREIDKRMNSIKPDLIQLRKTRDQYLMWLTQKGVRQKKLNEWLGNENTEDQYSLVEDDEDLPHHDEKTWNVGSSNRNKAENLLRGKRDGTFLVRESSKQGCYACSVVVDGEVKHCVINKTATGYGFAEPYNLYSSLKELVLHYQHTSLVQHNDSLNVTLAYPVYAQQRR
Description: as §2

IKKβ(h) = IKKβ(h) (Homo sapiens, UniProt O14920); assay: Kinase Profiler; assay type: biochemical
Sequence of IKKβ(h) (O14920 whole entry): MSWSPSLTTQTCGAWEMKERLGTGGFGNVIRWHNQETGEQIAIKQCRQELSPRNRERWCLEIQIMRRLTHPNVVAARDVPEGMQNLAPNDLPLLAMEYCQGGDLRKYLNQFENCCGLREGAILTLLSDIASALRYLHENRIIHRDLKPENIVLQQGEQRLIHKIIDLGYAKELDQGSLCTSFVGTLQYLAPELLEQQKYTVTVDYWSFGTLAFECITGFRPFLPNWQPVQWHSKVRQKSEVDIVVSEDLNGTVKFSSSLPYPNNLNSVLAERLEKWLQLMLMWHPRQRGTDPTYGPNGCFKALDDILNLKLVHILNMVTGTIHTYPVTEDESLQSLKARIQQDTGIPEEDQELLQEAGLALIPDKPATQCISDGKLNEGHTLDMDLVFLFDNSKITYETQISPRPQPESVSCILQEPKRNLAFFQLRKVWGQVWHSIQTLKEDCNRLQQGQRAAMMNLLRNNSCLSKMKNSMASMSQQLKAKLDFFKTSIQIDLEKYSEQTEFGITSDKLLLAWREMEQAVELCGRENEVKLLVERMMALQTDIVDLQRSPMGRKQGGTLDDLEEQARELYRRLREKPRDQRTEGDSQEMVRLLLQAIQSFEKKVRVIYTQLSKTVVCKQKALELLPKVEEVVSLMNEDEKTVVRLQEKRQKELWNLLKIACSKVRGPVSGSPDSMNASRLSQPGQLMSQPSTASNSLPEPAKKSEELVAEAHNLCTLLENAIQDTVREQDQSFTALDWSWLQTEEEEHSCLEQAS
Description: Blood cell counts, kinase profiler, safety screen, bacterial cytotoxicity, Ames, micronucleus assays were performed by the company Eurofins (France). The kinase profiler was performed by the company Eurofins (Discovery, Panlab and Cerep).

CDC42 = CDC42 (Homo sapiens, UniProt P60953); assay: GEF-stimulated nucleotide exchange; assay type: biochemical; set-up: Full-length RAC2, RHOG, RHOA and CDC42 were purified as previously described; made in house; TIAM DH-PH in E. coli Rosetta (DE3) pLysS; conditions: 10^-5 M
Sequence of CDC42 (P60953 whole entry): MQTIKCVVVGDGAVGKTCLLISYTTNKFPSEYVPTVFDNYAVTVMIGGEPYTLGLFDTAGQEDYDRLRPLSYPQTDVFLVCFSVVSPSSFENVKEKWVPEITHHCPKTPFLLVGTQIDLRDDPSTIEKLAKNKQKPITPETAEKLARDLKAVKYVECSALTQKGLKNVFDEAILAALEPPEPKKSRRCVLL
Source text: Figure 4 A41 selectively impairs RAC protein activation (A) Representative surface plasmon resonance (SPR) sensograms of binding of immobilized RHOA or CDC42 with indicated increasing concentrations of A41 (N > 3). (B) Effect of A41 on GEF-stimulated RAC2, RHOG, RHOA, and CDC42 nucleotide exchange. […] Kobs is expressed as mean ± SEM. ∗p < 0.001 vs. control. (C) Effect of A41 on RAC1 G30S activation. […] The GEF TRIO was used to induce nucleotide exchange (N = 3). Data are expressed as mean ± SEM. (D) Immunoblot analysis and associated quantification of RAC-GTP level and total RAC expression in NIH-3T3 fibroblasts expressing RAC wild-type (RAC1 WT) or RAC1 oncomutants (RAC1 P29S and RAC1b) in the absence (Ctrl) and presence of A41 (10 μM). RAC activation was measured as the ratio of RAC-GTP to total RAC and expressed relative to Ctrl condition. Data are presented as mean ± SEM. ∗∗∗p < 0.001 vs. controls.
Full-length RAC1 carrying a 6xHis tag in C-terminus was purified as previously described.[64] […] Specific exchange activity toward RHOA determined by fluorescence kinetics is 0.04 s^−1M^−1.
Nucleotide exchange kinetics were measured by recording the increase in fluorescence following the association of mant-GTP on GDP-bound RHO protein or the decay in fluorescence following the dissociation of mant-GDP pre-loaded onto the RHO protein (λEx = 360 nm, λEm = 440 nm) as previously described.[39] […]

Estrogen ERα = Estrogen ERα (Homo sapiens, UniProt P03372); assay: Safety screen; assay type: binding
Sequence of Estrogen ERα (P03372 whole entry): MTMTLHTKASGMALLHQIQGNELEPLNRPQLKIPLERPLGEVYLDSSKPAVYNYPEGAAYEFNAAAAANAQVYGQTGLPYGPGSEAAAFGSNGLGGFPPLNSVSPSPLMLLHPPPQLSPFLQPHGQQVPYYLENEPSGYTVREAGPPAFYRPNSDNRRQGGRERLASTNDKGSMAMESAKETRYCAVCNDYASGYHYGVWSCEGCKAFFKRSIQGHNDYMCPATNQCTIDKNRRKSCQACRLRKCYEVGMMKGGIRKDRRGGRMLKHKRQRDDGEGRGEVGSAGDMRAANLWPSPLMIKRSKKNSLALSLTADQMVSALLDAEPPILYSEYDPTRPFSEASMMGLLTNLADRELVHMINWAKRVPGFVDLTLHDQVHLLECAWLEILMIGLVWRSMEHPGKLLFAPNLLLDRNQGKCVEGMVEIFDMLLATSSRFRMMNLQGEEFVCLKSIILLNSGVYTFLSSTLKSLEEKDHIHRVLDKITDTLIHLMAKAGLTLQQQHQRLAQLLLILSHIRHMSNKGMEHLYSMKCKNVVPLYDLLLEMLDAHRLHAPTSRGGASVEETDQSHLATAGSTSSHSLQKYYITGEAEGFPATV
Description: as §1

Sequence of Peptidase, CTSG (Cathepsin G) (P08311 21-255): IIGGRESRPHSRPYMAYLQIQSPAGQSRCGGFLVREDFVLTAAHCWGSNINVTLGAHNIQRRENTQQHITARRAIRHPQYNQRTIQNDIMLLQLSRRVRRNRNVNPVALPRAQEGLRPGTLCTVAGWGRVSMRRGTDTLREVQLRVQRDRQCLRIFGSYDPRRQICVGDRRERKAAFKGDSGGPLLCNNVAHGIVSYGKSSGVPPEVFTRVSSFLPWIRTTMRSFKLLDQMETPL
Sequence of Fgr(h) (P09769 whole entry): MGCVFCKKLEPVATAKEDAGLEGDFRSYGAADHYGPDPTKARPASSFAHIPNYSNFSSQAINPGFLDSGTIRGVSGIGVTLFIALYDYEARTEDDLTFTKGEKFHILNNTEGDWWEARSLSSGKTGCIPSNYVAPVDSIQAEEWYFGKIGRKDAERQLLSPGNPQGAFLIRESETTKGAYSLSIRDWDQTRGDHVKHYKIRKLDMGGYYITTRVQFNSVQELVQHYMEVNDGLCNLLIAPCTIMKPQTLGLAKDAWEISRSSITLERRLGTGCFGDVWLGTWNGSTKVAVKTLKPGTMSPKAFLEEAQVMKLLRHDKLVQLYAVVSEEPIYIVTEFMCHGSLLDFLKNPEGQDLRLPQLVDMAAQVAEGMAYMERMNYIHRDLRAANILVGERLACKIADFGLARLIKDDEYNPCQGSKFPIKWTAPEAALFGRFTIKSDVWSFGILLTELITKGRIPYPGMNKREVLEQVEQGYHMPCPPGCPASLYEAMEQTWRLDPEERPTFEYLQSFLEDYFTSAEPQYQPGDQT

With `COc1ccc(OC)c(NS(=O)(=O)c2ccc(NC(=O)CCSc3ccc(C)cc3)cc2)c1` [Compound A41] the “% inh.” value [1] was -2%, the “Activity(%)” value (Fgr(h)) was 114% and the “Activity(%)” value [2] was 105%. For the same compound, the “Activity(%)” value (IKKβ(h)) was 110%, the “activation of CDC42 induced by TIAM DH-PH” value (CDC42) was “did not change the activation” and the “% inh.” value (Estrogen ERα) was 10%.
